Test results taken from patent US9446006B2, “Hydroxytyrosol combinations for enhancing mitochondrial function and energy production” (DSM IP ASSETS B.V., priority 2009, dated 2016).
Entries after “also recorded” stand apart in the source; their conditions may differ.

Key:
C2C12 mouse myoblasts = assay: Mitochondrial membrane potential by relative JC-1 fluorescence; format: cell-based; conditions: C2C12 cells, 24 h; for Increase in mitochondrial membrane potential: vs. control
Description: The objective of the experiment was to investigate whether and how mitochondrial energy production in myoblasts is affected by hydroxytyrosol alone or in combination with other compounds. For energy production, the mitochondrial electron transport chain generates a proton gradient across the […], creating a membrane potential that powers the synthesis of ATP by the ATP synthase complex. […] If a critical concentration is reached, JC-1 forms aggregates, which changes its fluorescence properties from green to red fluorescence. […] An increased mitochondrial membrane potential indicates an improved energetic state and increased capability to generate ATP and provide energy for other cellular components. […] C2C12 cells were seeded into a 96-well cell culture plate at 1000 cells/well and cultured in growth medium (Dulbecco's modified eagle medium (DMEM) supplemented with 10% fetal bovine serum) in a standard incubator (humidified, 37° C., 5% CO2) for 24 h. […] […] After 24 h of treatment, cells were incubated with medium containing JC-1 (2 ug/ml) for 30 min at 37° C., then the staining solution was removed, DMEM without phenol red was added, and green fluorescence (ex 485 nm/em 538 nm) and red fluorescence (ex 544 nm/em 590 nm) was measured using a fluorescence plate reader (SpectraMax M5). The ratio of red to green fluorescence in each well was determined and the average and standard deviation of the quadruplicate treatments were calculated.

PGC-1α = PGC-1α protein level in adipocytes (Western blot, densitometry); format: cell-based, murine; conditions: 3T3-L1 adipocytes; hydroxytyrosol 1.0 μM; vs. control
Method: Murine 3T3-L1 pre-adipocytes (American Type Culture Collection) were cultured in Dulbecco's Modified Eagle's Medium (DMEM) supplemented with 10% fetal bovine serum and allowed to reach confluence. Differentiation of pre-adipocytes was initiated with 1 μM insulin, 0.25 μM dexamethasone and 0.5 mM 3-isobutyl-1-methylxanthine in DMEM, supplemented with 10% fetal bovine serum. After 48 h, the culture medium was replaced with DMEM supplemented with 10% fetal bovine serum and 1 μM insulin. The culture medium was changed every other day with DMEM containing 10% fetal bovine serum. […] After treatment, cells were washed twice with ice-cold PBS, lysed in sample buffer (62.5 mM Tris-Cl pH 6.8, 2% SDS, 5 mM DTT) at room temperature and vortexed. Cell lysates were then boiled for 5 minutes and cleared by centrifugation (13,000 rpm, 10 minutes at 4° C.). Protein concentration was determined using the Bio-Rad DC protein assay. The soluble lysates (10 μg per lane) were subjected to 10% SDS-PAGE, proteins were then transferred to nitrocellulose membranes and blocked with 5% non-fat milk/TBST for 1 h at room temperature. […] Western blots were developed using ECL (Roche Manheim, Germany) and quantified by scanning densitometry.

[1] = tested on: mitochondrial electron transport complex I; assay: Mitochondrial complex I protein expression in adipocytes (Western blot); format: cell-based, murine; conditions: 3T3-L1 adipocytes, 48 hrs, vs. control
Method: Murine 3T3-L1 pre-adipocytes (American Type Culture Collection) were cultured in Dulbecco's Modified Eagle's Medium (DMEM) supplemented with 10% fetal bovine serum and allowed to reach confluence. Differentiation of pre-adipocytes was initiated with 1 μM insulin, 0.25 μM dexamethasone and 0.5 mM 3-isobutyl-1-methylxanthine in DMEM, supplemented with 10% fetal bovine serum. After 48 h, the culture medium was replaced with DMEM supplemented with 10% fetal bovine serum and 1 μM insulin. The culture medium was changed every other day with DMEM containing 10% fetal bovine serum. […] After treatment, cells were washed twice with ice-cold PBS, lysed in sample buffer (62.5 mM Tris-Cl pH 6.8, 2% SDS, 5 mM DTT) at room temperature and vortexed. Cell lysates were then boiled for 5 minutes and cleared by centrifugation (13,000 rpm, 10 minutes at 4° C.). Protein concentration was determined using the Bio-Rad DC protein assay. The soluble lysates (10 μg per lane) were subjected to 10% SDS-PAGE, proteins were then transferred to nitrocellulose membranes and blocked with 5% non-fat milk/TBST for 1 h at room temperature. Membranes were incubated with primary antibodies directed against PPAR-γ (1:1000), PGC-1α (1:1000), α-tubulin (1:10 000), Complex I (1:2000), Complex II (1:2000), Complex III (1:2000) and Complex V (1:2000) in 5% milk/TBST at 4° C. overnight. After washing membranes with TBST three times, membranes were incubated with horseradish peroxidase-conjugated secondary antibody for 1 h at room temperature. Western blots were developed using ECL (Roche Manheim, Germany) and quantified by scanning densitometry.

Compound: NC(=O)c1ncn([C@@H]2O[C@H](CO)[C@@H](O)[C@H]2O)c1N [AICAR, aminoimidazole carboxamide ribonucleotide]
- Effect on mitochondrial membrane potential (red/green JC-1 fluorescence ratio) (C2C12 mouse myoblasts; 500 uM): increase in mitochondrial potential; also recorded: increase mitochondrial membrane potential
- Increase in mitochondrial membrane potential (C2C12 mouse myoblasts; 500 μM): 16%

Compound: Cn1c(=O)c2c(ncn2C)n(C)c1=O [Caffeine, caffeine]
- Effect on mitochondrial membrane potential (red/green JC-1 fluorescence ratio) (C2C12 mouse myoblasts; 200 uM alone): no significant effect
- Increase in mitochondrial membrane potential (C2C12 mouse myoblasts; 200 μM alone): −4%

Compound: OCCc1ccc(O)c(O)c1 [Hydroxytyrosol, 3,4-dihydroxyphenylethanol]
- Effect on mitochondrial membrane potential (red/green JC-1 fluorescence ratio) (C2C12 mouse myoblasts; 1 uM): no significant effect
- Increase in mitochondrial membrane potential (C2C12 mouse myoblasts; 1 μM): 1%
- Increase in mitochondrial membrane potential (C2C12 mouse myoblasts; 10 μM): 11%
- PGC-1α protein expression (PGC-1α:α-tubulin ratio), maximum (PGC-1α): 205±52%
- Mitochondrial electron transport complex I protein ([1]; 0.1 μM): 131±16%
- Mitochondrial electron transport complex I protein ([1]; 1.0 μM): 163±31%
- Mitochondrial electron transport complex I protein ([1]; 10.0 μM): 138±21%

Compound: C[N+](C)(C)C[C@H](O)CC(=O)[O-] [L-carnithine]
- Effect on mitochondrial membrane potential (red/green JC-1 fluorescence ratio) (C2C12 mouse myoblasts; 200 uM alone): no significant effect
- Increase in mitochondrial membrane potential (C2C12 mouse myoblasts; 200 μM alone): 0%
